Where a name gives a salt, the structure may show the parent alone.
Each compound was assayed on Acinetobacter baumannii ATCC17961 (assay: Antimicrobial susceptibility testing: 90% growth inhibitory concentration (IC90) determination in Iso-Sensitest broth, OD600 growth). Conditions: Acinetobacter baumannii, ATCC17961, 16 h, read-out: A. baumannii ATCC 17961 IC90 (uM), strain ATCC 17961, OD600 growth over 16 h.
Type: cell-based
Outline: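 Compounds were twofold serially diluted in DMSO across 10 points (e.g. 50 to 0.097 μM final) and inoculated at ~5×10^(5) CFU/ml. Plates incubated at 35±2° C, with OD600 read every 20 minutes over 16 h. IC90 was derived from growth inhibition during logarithmic growth.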

N#CCn1cc(-c2cnc3c(Nc4ccc(C(=O)N5CCN(C(=O)[C@@H]6CC[C@@H](N)C6)CC5)c(Cl)c4)nccn23)c(C(F)(F)F)n1 [Example 573, 2-(4-(8-((4-(4-((1R,3R)-3-aminocyclopentane-1-carbonyl)piperazine-1-carbonyl)-3-chlorophenyl)amino)imidazo[1,2-a]pyrazin-3-yl)-3-(trifluoromethyl)-1H-pyrazol-1-yl)acetonitrile formate] and N#CCn1cc(-c2cnc3c(Nc4ccc(C(=O)N5CCN(C(=O)[C@H]6CC[C@H](N)C6)CC5)c(Cl)c4)nccn23)c(C(F)(F)F)n1 [Example 582, 2-(4-(8-((4-(4-((1S,3S)-3-aminocyclopentane-1-carbonyl)piperazine-1-carbonyl)-3-chlorophenyl)amino)imidazo[1,2-a]pyrazin-3-yl)-3-(trifluoromethyl)-1H-pyrazol-1-yl) acetonitrile formate] are within 1.5-fold of each other in IC90: 0.169 µM for the first, 0.232 µM for the second.

N[C@@H]1CC[C@@H](C(=O)N2CCN(C(=O)c3ccc(Nc4nccn5c(-c6cn(CC(F)F)nc6C(F)(F)F)cnc45)cc3Cl)CC2)C1 [Example 574, (4-((1R,3R)-3-aminocyclopentane-1-carbonyl)piperazin-1-yl)(2-chloro-4-((3-(1-(2,2-difluoroethyl)-3-(trifluoromethyl)-1H-pyrazol-4-yl)imidazo[1,2-a]pyrazin-8-yl)amino)phenyl)methanone formate] and N[C@H]1CC[C@H](C(=O)N2CCN(C(=O)c3ccc(Nc4nccn5c(-c6cn(CC(F)F)nc6C(F)(F)F)cnc45)cc3Cl)CC2)C1 [Example 583, (4-((1S,3S)-3-aminocyclopentane-1-carbonyl)piperazin-1-yl) (2-chloro-4-((3-(1-(2,2-difluoroethyl)-3-(trifluoromethyl)-1H-pyrazol-4-yl)imidazo[1,2-a]pyrazin-8-yl)amino)phenyl) methanone formate] are within 1.5-fold of each other in IC90: 0.242 µM for the first, 0.347 µM for the second.

First: N[C@H]1CC[C@H](C(=O)N2CCN(C(=O)c3ccc(Nc4nccn5c(-c6c[nH]nc6C(F)(F)F)cnc45)cc3Cl)CC2)C1 [Example 575, (4-((1S,3S)-3-aminocyclopentane-1-carbonyl)piperazin-1-yl)(2-chloro-4-((3-(3-(trifluoromethyl)-1H-pyrazol-4-yl)imidazo[1,2-a]pyrazin-8-yl)amino)phenyl)methanone formate]
Second: O=C(CC1CCNCC1)N1CCN(C(=O)c2ccc(Nc3nccn4c(-c5cn(CC(F)F)nc5C(F)(F)F)cnc34)cc2Cl)CC1 [Example 578, 1-(4-(2-chloro-4-((3-(1-(2,2-difluoroethyl)-3-(trifluoromethyl)-1H-pyrazol-4-yl)imidazo[1,2-a]pyrazin-8-yl)amino)benzoyl)piperazin-1-yl)-2-(piperidin-4-yl) ethan-1-one formate]
The IC90 of the first is 2.3-fold lower: 0.175 µM for the first, 0.394 µM for the second.

First: N#CCn1cc(-c2cnc3c(Nc4ccc(C(=O)N5CCN(C(=O)NCC6(O)CNC6)CC5)c(Cl)c4)nccn23)c(C(F)(F)F)n1 [Example 579, 4-(2-chloro-4-((3-(1-(cyanomethyl)-3-(trifluoromethyl)-1H-pyrazol-4-yl)imidazo[1,2-a]pyrazin-8-yl)amino)benzoyl)-N-((3-hydroxyazetidin-3-yl)methyl)piperazine-1-carboxamide formate]
Second: O=C(NCC1(O)CNC1)N1CCN(C(=O)c2ccc(Nc3nccn4c(-c5cn(CC(F)F)nc5C(F)(F)F)cnc34)cc2Cl)CC1 [Example 580, 4-(2-chloro-4-((3-(1-(2,2-difluoroethyl)-3-(trifluoromethyl)-1H-pyrazol-4-yl)imidazo[1,2-a]pyrazin-8-yl)amino)benzoyl)-N-((3-hydroxyazetidin-3-yl)methyl)piperazine-1-carboxamide formate]
The IC90 of the first is 1.7-fold higher: 0.538 µM for the first, 0.322 µM for the second.

CCc1cc(Nc2nccn3c(-c4c[nH]nc4C(F)(F)F)cnc23)ccc1C(=O)NCCNC(=O)[C@@H]1CC[C@@H](N)C1 [Example 586, N-[2-[[(1R,3R)-3-aminocyclo-pentanecarbonyl]amino]ethyl]-2-ethyl-4-[[3-[3-(trifluoromethyl)-1H-pyrazol-4-yl]imidazo[1,2-a]pyrazin-8-yl]amino]benzamide formate] and CCc1cc(Nc2nccn3c(-c4c[nH]nc4C(F)(F)F)cnc23)ccc1C(=O)NCCNC(=O)[C@H]1CC[C@H](N)C1 [Example 588, N-(2-((1S,3S)-3-aminocyclopentane-1-carboxamido)ethyl)-2-ethyl-4-((3-(3-(trifluoromethyl)-1H-pyrazol-4-yl)imidazo[1,2-a]pyrazin-8-yl)amino)benzamide formate] are within 1.5-fold of each other in IC90: 0.434 µM for the first, 0.46 µM for the second.

First: CCc1cc(Nc2nccn3c(-c4cn(CC#N)nc4C(F)(F)F)cnc23)ccc1C(=O)NCCNC(=O)[C@@H]1CC[C@@H](N)C1 [Example 587, N-(2-((1R,3R)-3-aminocyclopentane-1-carboxamido)ethyl)-4-((3-(1-(cyanomethyl)-3-(trifluoromethyl)-1H-pyrazol-4-yl)imidazo[1,2-a]pyrazin-8-yl)amino)-2-ethylbenzamide formate]
Second: CNC(=O)c1ccc(Nc2nccn3c(-c4cn(CCN(C)C)nc4C(F)(F)F)cnc23)cc1Cl [Example 591, 2-chloro-4-((3-(1-(2-(dimethylamino)ethyl)-3-(trifluoromethyl)-1H-pyrazol-4-yl)imidazo[1,2-a]pyrazin-8-yl)amino)-N-methylbenzamide formate]
The IC90 of the first is 2.2-fold lower: 0.221 µM for the first, 0.483 µM for the second.

First: CNC(=O)c1ccc(Nc2nccn3c(-c4cn(C5CCN(Cc6ccccc6)CC5)nc4C(F)(F)F)cnc23)cc1Cl [Example 592, 4-((3-(1-(1-benzylpiperidin-4-yl)-3-(trifluoromethyl)-1H-pyrazol-4-yl)imidazo[1,2-a]pyrazin-8-yl)amino)-2-chloro-N-methylbenzamide formate]
Second: CNC(=O)c1ccc(Nc2nccn3c(-c4cn(CC5CCN(Cc6ccccc6)C5)nc4C(F)(F)F)cnc23)cc1Cl (centres unmarked) [Example 593, 4-((3-(1-((1-benzylpyrrolidin-3-yl)methyl)-3-(trifluoromethyl)-1H-pyrazol-4-yl)imidazo [1,2-a]pyrazin-8-yl)amino)-2-chloro-N-methylbenzamide formate]
The IC90 of the first is 1.7-fold higher: 0.402 µM for the first, 0.234 µM for the second.

CNC(=O)c1ccc(Nc2nccn3c(-c4cn(CCCc5ccc(CN)cc5)nc4C(F)(F)F)cnc23)cc1Cl [Example 594, 4-((3-(1-(3-(4-(aminomethyl)phenyl)propyl)-3-(trifluoromethyl)-1H-pyrazol-4-yl)imidazo[1,2-a]pyrazin-8-yl)amino)-2-chloro-N-methylbenzamide formate] and CNC(=O)c1ccc(Nc2nccn3c(-c4cn(Cc5cccc(CCN)c5)nc4C(F)(F)F)cnc23)cc1Cl [Example 595, 4-((3-(1-(3-(2-aminoethyl)benzyl)-3-(trifluoromethyl)-1H-pyrazol-4-yl)imidazo[1,2-a]pyrazin-8-yl)amino)-2-chloro-N-methylbenzamide formate] are within 1.5-fold of each other in IC90: 0.164 µM for the first, 0.186 µM for the second.

Same assay, conditions: Acinetobacter baumannii, ATCC17961, 16 h, strain ATCC 17961, OD600 growth over 16 h, read-out: A. baumannii ATCC 17961 IC90

Compared with CCc1cc(Nc2nccn3c(-c4c[nH]nc4C(F)(F)F)cnc23)ccc1C(=O)NCCNC(=O)N1CC[C@H](N)C1 [Example 576, (S)-3-amino-N-(2-(2-ethyl-4-((3-(3-(trifluoromethyl)-1H-pyrazol-4-yl)imidazo[1,2-a]pyrazin-8-yl)amino)benzamido)ethyl) pyrrolidine-1-carboxamide formate], CCc1cc(Nc2nccn3c(-c4cn(CC#N)nc4C(F)(F)F)cnc23)ccc1C(=O)NCCNC(=O)N1CC[C@H](N)C1 [Example 577, (S)-3-amino-N-(2-(4-((3-(1-(cyanomethyl)-3-(trifluoromethyl)-1H-pyrazol-4-yl)imidazo[1,2-a]pyrazin-8-yl)amino)-2-ethylbenzamido)ethyl) pyrrolidine-1-carboxamide formate] is 2.3-fold lower in IC90: 0.9 µM for the first, 0.395 µM for the second.

O=C(NC1CNC1)N1CCN(C(=O)c2ccc(Nc3nccn4c(-c5cn(CC(F)F)nc5C(F)(F)F)cnc34)cc2Cl)CC1 [Example 581, N-(azetidin-3-yl)-4-(2-chloro-4-((3-(1-(2,2-difluoroethyl)-3-(trifluoromethyl)-1H-pyrazol-4-yl)imidazo[1,2-a]pyrazin-8-yl)amino)benzoyl) piperazine-1-carboxamide formate] and N[C@H]1C[C@@H](NC(=O)N2CCN(C(=O)c3ccc(Nc4nccn5c(-c6cn(CC(F)F)nc6C(F)(F)F)cnc45)cc3Cl)CC2)C1 [Example 585, N-((1s,3s)-3-aminocyclobutyl)-4-(2-chloro-4-((3-(1-(2,2-difluoroethyl)-3-(trifluoromethyl)-1H-pyrazol-4-yl)imidazo[1,2-a]pyrazin-8-yl)amino)benzoyl) piperazine-1-carboxamide formate] are within 1.5-fold of each other in IC90: 0.354 µM for the first, 0.325 µM for the second.

N#CCn1cc(-c2cnc3c(Nc4ccc(C(=O)N5CCN(C(=O)N[C@H]6C[C@@H](N)C6)CC5)c(Cl)c4)nccn23)c(C(F)(F)F)n1 [Example 584, N-((1s,3s)-3-aminocyclobutyl)-4-(2-chloro-4-((3-(1-(cyanomethyl)-3-(trifluoromethyl)-1H-pyrazol-4-yl)imidazo[1,2-a]pyrazin-8-yl)amino)benzoyl) piperazine-1-carboxamide formate] and CNC(=O)c1ccc(Nc2nccn3c(-c4cn(Cc5ccn(CC#N)n5)nc4C(F)(F)F)cnc23)cc1Cl [Example 590, 2-chloro-4-((3-(1-((1-(cyanomethyl)-1H-pyrazol-3-yl)methyl)-3-(trifluoromethyl)-1H-pyrazol-4-yl)imidazo [1,2-a]pyrazin-8-yl)amino)-N-methylbenzamide] are within 1.5-fold of each other in IC90: 0.257 µM for the first, 0.375 µM for the second.

CCc1cc(Nc2nccn3c(-c4cn(Cc5ccn(CC#N)n5)nc4C(F)(F)F)cnc23)ccc1C(=O)NC [Example 589, 4-((3-(1-((1-(cyanomethyl)-1H-pyrazol-3-yl)methyl)-3-(trifluoromethyl)-1H-pyrazol-4-yl)imidazo[1,2-a]pyrazin-8-yl)amino)-2-ethyl-N-methylbenzamide] was tested, and the IC90 was 0.84 µM.

— US20230203043A1, “NOVEL IMIDAZOPYRAZINE DERIVATIVES” (Hoffmann-La Roche Inc., priority 2020, published 2023)
